Results on 7 compounds are retold here after US7008666B2, “Method of inhibiting overactivity of phagocytes or lymphocytes in an individual” (Hormos Nutraceutical Oy Ltd., priority 2001, dated 2006).

For one test, the system named is human neutrophils. The test can be described thus: Neutrophil oxidative burst, PMA-stimulated, lucigenin chemiluminescence. The settings on record: human neutrophils in vitro, PMA stimulus. The format is cell-based. As to the method:
(§1) Isolation of neutrophils: Neutrophils were isolated from 30 mL freshly drawn heparinized whole blood, after dextran sedimentation of erythrocytes for 30 min. The leucocyte rich plasma was layered over an equal volume of Percoll (Sigma) and centrifuged at 400×g for 15 min. Erythrocytes, contaminating the neutrophil pellet, were destroyed by osmotic lysis with 0.87% NH4Cl (pH 7.0). Neutrophils were washed with PBS (pH 7.1) and centrifuged at 200×g for 10 min. Cells were resuspended in fresh HBS (containing 0.8 g NaCl, 0.4 g KCl, 0.06 g Na2HPO4×2 H2O, 0.06 g KH2PO4, 0.1 g MgSO4×7H2O and 1 g glucose in 1000 mL of distilled water; pH adjusted to 7.4 by 7% NaHCO3) and counted before use.
Measurement of neutrophil oxidative burst: Production of reactive oxygen species by neutrophils was recorded by chemiluminescent analysis. Chemiluminescence measurements were performed with Bio-Orbit 1251 Luminometer connected to a personal computer with special programs for the assays (Bio-Orbit, Turku, Finland). The protocol for each assay included automatic pipetting of the appropriate reagent that initiated the reaction in all cuvettes. Six or twelve samples were analyzed simultaneously, depending on the assay. Disposable plastic cuvettes were used throughout.
One millilitre of cell suspension (final cell count 10^6 cells/mL) was placed in plastic cuvettes, and the level of resting chemiluminescence was recorded before addition of the stimulus; production of reactive oxygen by neutrophils (oxidative burst) was stimulated by addition of phorbol-myristate-acetate (PMA). The buffer (HBS, pH 7.4) was pipetted in a volume of 0.930 mL in the luminometer cuvette. Test compounds were added to incubation mixtures in a small volume (2% of total incubation volume) of ethanol. […] Fifty microliters of 5 mM lucigenin was added, and the reaction was initiated by 0.020 mL of 0.1 mM PMA at 37° C. The chemiluminescence was measured for about 45 min at 1 min cycles and the area under curve (integral) was calculated. […] Based on these experiments, a IC50-value (concentration that under these circumstances produced a 50% inhibition of neutrophil oxidative burst) was determined.

Another test concerns the target T1, Myeloperoxidase (Homo sapiens, UniProt P05164).
T1 construct: And Myeloperoxidase Activity Of Human Neutrophils In Vitro; endogenous in cells; host or cells: human neutrophils isolated from freshly drawn heparinized whole blood
The test can be described thus: Myeloperoxidase activity, tetramethylbenzidine oxidation. The format is biochemical. Particulars: human neutrophils in vitro. As to the method:
as §1
Myeloperoxidase activity: Myeloperoxidase activity was determined by the method of Suzuki et al. (Suzuki, K., Ota, H., Sasagawa, S., Sakatoni, T., Fujikura, T., Ann Biochem 132:345–352, 1983) in which the enzyme catalyzes the oxidation of 3,3′,5,5′-tetramethylbenzidine by H2O2 to yield a blue chromogen with a maximum wavelength of 655 nm. Studies on myeloperoxidase inhibition in vitro were performed by adding test compounds to incubation mixtures in a small volume (2% of incubation volume) of ethanol. […] Based on these experiments, a IC50-value (concentration that under these circumstances produced a 50% inhibition of myeloperoxidase activity) was determined.

Test [1] deals with Monocytes. Description: LPS-induced TNF-α production by monocytes, ELISA. The format is cell-based, human. Particulars: 100 μM, 24 h pre-incubation, LPS 1 μg/ml for 48 h; IL-10 100 U/ml. As to the method: Monocytes were isolated from human peripheral blood mononuclear cells by magnetic sorting. The cells were pre-incubated with the lignans matairesinol (as a reference compound) and enterolactone (1–100μM) or interleukin 10 (IL-10) (100 U/ml) for 24 hours before addition of LPS (1 μg/ml) into cell culture. After additional 48 hours the levels of TNF- from culture supernatants were measured by ELISA.
A general note: An ELISA detects its analyte on a solid surface through an enzyme-linked reagent.

Test [2] has as its system Fas receptor on Jurkat cells. Description: Fas receptor surface (FasR) expression, immunostaining. Particulars: 50 or 100 μM, versus untreated control. The format is cell-based, human. As to the method:
Effect of lignans on Fas receptor surface (FasR) expression: The experiment was performed essentially as described in the literature (Brunner et al., Nature 373, 441–443, 1995). The surface expression of the FasR was measured by immunostaining alive Jurkat cells with an monoclonal anti-FasR antibody (Medical Biological Laboratories Co. Ltd, Japan, clone CH-11) and an anti-mouse antibody labelled with FITC (Alexis Biochemicals Ltd, USA) according to manufacturers instructions. The fluorescence intensity equals the amount of antibody bound to the FasR on the cell membrane.

In test [3] the test system is Monocytes. Particulars: 1200 IU per day for 8 weeks, healthy volunteers; cited from earlier work.
Another test relates to neutrophils. The settings on record: 6.25 mg daily for 1 week; cited from earlier work.
A further test deals with mononuclear cells. The settings on record: 6.25 mg daily for 1 week; cited from earlier work.

T1 sequence (P05164 279-745 limits assumed): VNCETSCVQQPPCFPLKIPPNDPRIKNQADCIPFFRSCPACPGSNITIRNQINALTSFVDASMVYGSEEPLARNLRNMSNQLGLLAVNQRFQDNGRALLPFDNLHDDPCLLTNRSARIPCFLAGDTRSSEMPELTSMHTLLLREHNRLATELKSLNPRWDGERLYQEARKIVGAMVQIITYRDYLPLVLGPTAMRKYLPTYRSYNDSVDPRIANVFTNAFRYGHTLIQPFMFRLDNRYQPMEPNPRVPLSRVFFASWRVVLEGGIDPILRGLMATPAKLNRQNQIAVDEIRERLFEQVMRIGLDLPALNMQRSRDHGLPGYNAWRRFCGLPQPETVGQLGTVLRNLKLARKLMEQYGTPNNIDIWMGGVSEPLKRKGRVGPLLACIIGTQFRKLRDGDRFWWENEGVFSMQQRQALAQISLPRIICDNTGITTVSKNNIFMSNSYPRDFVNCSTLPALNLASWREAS
T1 sequence (P05164 165-273 limits assumed): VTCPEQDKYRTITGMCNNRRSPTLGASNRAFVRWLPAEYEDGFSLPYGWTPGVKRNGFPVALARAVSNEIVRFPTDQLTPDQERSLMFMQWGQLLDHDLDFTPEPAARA

What is called IC50 is the concentration at which inhibition is half-maximal. `CN(C)CCOc1ccc(/C(=C(/CCCl)c2ccccc2)c2ccc(O)cc2)cc1` [4-OH-toremifene, reference compound]: the IC50 in the test on human neutrophils was 1.7 µM; against Myeloperoxidase, 54 µM.

For `COc1cc(C[C@H]2COC(=O)[C@@H]2Cc2ccc(O)c(OC)c2)ccc1O` [Matairesinol, matairesinol], the “LPS-induced TNF-α production compared with positive control IL-10” value in the test on Monocytes [1] is “at least as effective”. Further, the Fas surface expression result in test [2] is listed as “elevated level of Fas protein”. The IC50 with human neutrophils (Neutrophil) came out at 11 µM; against Myeloperoxidase, 44.5 µM.

With `CC(=O)C(=Cc1cc(O)c(O)c([N+](=O)[O-])c1)C(C)=O` [Nitecapone, nitecapone, reference compound], the IC50 worked out at 7.5 µM in the test on human neutrophils (Neutrophil) and 2.3 µM on Myeloperoxidase.

As for `COc1cc(CC2C(=O)OCC2C(O)c2ccc(O)c(OC)c2)ccc1O` (stereo not shown) [Hydroxymatairesinol, hydroxymatairesinol], the Fas surface expression result in test [2] is reported as “elevated level of Fas protein”. Further, the IC50 in the test with human neutrophils (Neutrophil) worked out at 5.3 µM; at Myeloperoxidase it was 6.8 µM.

For `O=C1OC[C@H](Cc2cccc(O)c2)[C@H]1Cc1cccc(O)c1` [enterolactone], the “LPS-induced TNF-α production compared with positive control IL-10” value in the test on Monocytes [1] was “at least as effective”. Further, the Fas surface expression entry in test [2] is “elevated level of Fas protein”.

For `Cc1c(C)c2c(c(C)c1O)CC[C@@](C)(CCC[C@H](C)CCC[C@H](C)CCCC(C)C)O2` [alpha-tocopherol], in the test with Monocytes [3], the “decrease in reactive oxygen production by monocytes” value was 50%–60.

Turning to `COc1ccccc1OCCNCC(O)COc1cccc2[nH]c3ccccc3c12` (stereo not shown) [carvedilol], in the test with neutrophils, the “decrease of reactive oxygen production by neutrophils” value is given as 59%. The “decrease of reactive oxygen production by mononuclear cells” value in the test on mononuclear cells is reported as 62%.
